Experimental data taken from US5204462A, “4H-3,1-benzoxazin-4-one derivative” (Japan Tobacco, Inc., priority 1990, dated 1993).

Experiments:
Format in all cases: biochemical
[1] = target: T1, human leukocyte elastase (HLE) (Homo sapiens, UniProt P08246); experiment: Test 1: Measurement of inhibitory activity against HLE; details: MeO-Suc-Ala-Ala-Pro-Val-pNA substrate, pH 8.6, 37° C., 10 min after mixing enzyme and inhibitor, steady state rate
T1 construct: HLE was purified according to the method described by A. J. Barrett; from tissue; host or cells: purified from natural human material by Barrett's method (Methods in Enzymology 80, 581-588, 1981)
T1 sequence (P08246 30-247 limits assumed): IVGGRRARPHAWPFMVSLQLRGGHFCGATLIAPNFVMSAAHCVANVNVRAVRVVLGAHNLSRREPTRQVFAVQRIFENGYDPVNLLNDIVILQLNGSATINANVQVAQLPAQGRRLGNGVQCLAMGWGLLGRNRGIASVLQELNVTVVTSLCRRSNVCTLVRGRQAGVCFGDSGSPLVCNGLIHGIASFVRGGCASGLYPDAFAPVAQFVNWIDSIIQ
Protocol: (§1) In order to investigate the serine protease inhibiting activity of the 4H-3,1-benzoxazin-4-one derivatives according to the present invention, human leukocyte elastase (HLE), bovine α-chymotrypsin (CYT), and human cathepsin G (HCG) were used in accordance with the following methods.
(§2) Note that the 4H-3,1-benzoxazin-4-one derivative of the present invention was dissolved in dimethylsulfoxide (DMSO) to adjust to the concentration to 1 mg/ml. This solution was serially diluted with DMSO, and twice the volume of measurement buffer was added to these DMSO solutions to provide the inhibitor solution. Test 1: Measurement of inhibitory activity against HLE
0.2M tris-hydrochloride buffer (pH=8.6)
HLE was purified according to the method described by A. J. Barrett ("Methods in Enzymology", Vol. 80, pp. 581 to 588, 1981) and adjusted to a concentration of 190 nM with measurement buffer. This solution was used as the enzyme solution.
Methoxysuccinyl-L-alanyl-L-alanyl-L-prolyl-L-valyl-paranitroanilide (Funakoshi Co. Ltd., Tokyo, Japan) as enzyme substrate was dissolved and adjusted to a concentration of 5 mM with DMSO. This DMSO solution was diluted with twice the volume of measurement buffer, and then used as the substrate solution.
(§3) The enzyme solution, the substrate solution, and the inhibitor solution were pre-incubated at 37° C. for 10 minutes. The enzyme solution (140 μl) and the inhibitor solution (30 μl) were mixed in a well of a 96-well microtiter plate (Nunc Co. Ltd., Roskilde, Denmark), and the substrate solutions (30 μl) were added 10 minutes after the mixing, thereby starting the enzyme reaction. Hydrolysis of the substrate was monitored by the measurement of absorbance at 405 nm using a micro plate photometer (Corona Co. Ltd, Tokyo, Japan). The inhibitor concentration at which the activity of HLE was inhibited by 50% (IC50) was calculated from the substrate hydrolysis rate in the steady state.

[2] = target: T2, bovine α-chymotrypsin (CYT) (Bos taurus, UniProt P00766); experiment: Test 2: Measurement of inhibitory activity against CYT; details: MeO-Suc-Ala-Ala-Pro-Phe-pNA substrate, pH 8.0, same procedures as Test 1
T2 construct: purchased Sigma Co. Ltd., St. Louise, MO
Protocol: as §1, §2, §3
Test 2: Measurement of inhibitory activity against CYT.
0.2M tris-hydrochloride buffer (pH=8.0)
CYT (Sigma Co. Ltd., St. Louise, MO) was adjusted to a concentration of 190 nM with the measurement buffer. This solution was used as the enzyme solution.
Methoxysuccinyl-L-alanyl-L-alanyl-L-prolyl-L-phenylalanyl-paranitroanilide (Funakoshi) as the enzyme substrate was dissolved and adjusted to a concentration of 5 mM with DMSO. This DMSO solution was diluted with twice the volume of measurement buffer, and then used as the substrate solution.
IC50 against CYT was determined in the same procedures detailed in Test 1.

human cathepsin G (HCG) = target: T3, human cathepsin G (HCG) (Homo sapiens, UniProt P08311); experiment: Test 3: Measurement of inhibitory activity against HCG; details: MeO-Suc-Ala-Ala-Pro-Phe-pNA substrate, pH 7.5, same procedure as Test 1
T3 construct: purchased Cosmo Bio Co. Ltd., Tokyo, Japan
T3 sequence (P08311 21-244 limits assumed): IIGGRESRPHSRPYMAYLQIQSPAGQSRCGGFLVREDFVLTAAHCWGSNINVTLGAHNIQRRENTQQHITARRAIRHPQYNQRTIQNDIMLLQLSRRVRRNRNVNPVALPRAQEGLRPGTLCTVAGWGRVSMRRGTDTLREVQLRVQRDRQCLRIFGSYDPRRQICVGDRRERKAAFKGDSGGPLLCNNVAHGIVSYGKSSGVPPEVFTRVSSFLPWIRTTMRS
Protocol: as §1, §2, §3
Test 3: Measurement of inhibitory activity against HCG.
0.2M tris-hydrochloride buffer (pH=7.5)
HCG (Cosmo Bio Co. Ltd., Tokyo, Japan) was adjusted to a concentration of 190 nM with the measurement buffer. This solution was used as the enzyme solution.
Methoxysuccinyl-L-alanyl-L-alanyl-L-prolyl-L-phenylalanyl-paranitroanilide (Funakoshi) as the enzyme substrate was dissolved and adjusted to a concentration of […] with DMSO. This DMSO solution was diluted with twice the volume of the measurement buffer, and then used as the substrate solution.
IC50 against HCG was determined in the same procedure detailed in Test 1.

Cc1cccc2nc([C@@H](NC(=O)[C@@H]3CCCN3C(=O)OCc3ccccc3)C(C)C)oc(=O)c12 [Example 1, (1'S)-2-[1'-(N-benzyloxycarbonyl-L-prolyl)amino-2'-methyl]propyl-5-methyl-4H-3,1-benzoxazin-4-one]
IC50 [1]: 0.28 µM | IC50 [2]: 2.89 µM | IC50 (human cathepsin G (HCG)): > 50 µM

Cc1cccc2nc([C@@H](NC(=O)[C@@H]3CCCN3C(=O)OC(C)(C)C)C(C)C)oc(=O)c12 [Example 2, (1'S)-2-[1'-(N-tert-butyloxycarbonyl-L-prolyl)amino-2'-methyl]propyl-5-methyl-4H-3,1-benzoxazin-4-one]
IC50 [1]: 2.72 µM | IC50 [2]: 18.3 µM | IC50 (human cathepsin G (HCG)): 26.5 µM

Cc1cccc2nc([C@@H](NC(=O)[C@@H]3CCCN3C(=O)/C=C/c3ccccc3)C(C)C)oc(=O)c12 [Example 3, (1'S)-2-[1'-(N-cinnamoyl-L-prolyl)amino-2'-methyl]propyl-5-methyl-4H-3,1-benzoxazin-4-one]
IC50 [1]: 1.31 µM | IC50 [2]: 15.6 µM | IC50 (human cathepsin G (HCG)): > 200 µM

Cc1cccc2nc([C@@H](NC(=O)[C@@H]3CCCN3C(=O)CCc3ccccc3)C(C)C)oc(=O)c12 [Example 4, (1'S)-5-methyl-2-{2'-methyl-1'-[N-(3-phenylpropionyl)-L-prolyl]amino}propyl-4H-3,1-benzoxazin-4-one]
IC50 [1]: 0.52 µM | IC50 [2]: 8.69 µM | IC50 (human cathepsin G (HCG)): > 200 µM

CCCCCC(=O)N1CCC[C@H]1C(=O)N[C@H](c1nc2cccc(C)c2c(=O)o1)C(C)C [Example 5, (1'S)-2-[1'-(N-hexanoyl-L-prolyl)amino-2'-methyl]propyl-5-methyl-4H-3,1-benzoxazin-4-one]
IC50 [1]: 1.22 µM | IC50 [2]: 11.3 µM | IC50 (human cathepsin G (HCG)): > 140 µM

COC(=O)CCC(=O)N[C@@H](C)C(=O)N[C@@H](C)C(=O)N1CCC[C@H]1C(=O)N[C@H](c1nc2cccc(C)c2c(=O)o1)C(C)C [Example 6, (1'S)-2-[1'-(methoxysuccinyl-L-alanyl-L-alanyl-L-prolyl)amino-2'-methyl]propyl-5-methyl-4H-3,1-benzoxazin-4-one]
IC50 [1]: 2.98 µM | IC50 [2]: 22.1 µM | IC50 (human cathepsin G (HCG)): 15 µM

CSCC[C@H](NC(=O)[C@@H]1CCCN1C(=O)OCc1ccccc1)c1nc2cccc(C)c2c(=O)o1 [Example 10, (1'S)-2-[1'-(N-benzyloxycarbonyl-L-prolyl)amino-3'-(methylthio)]propyl-5-methyl-4H-3,1-benzoxazin-4-one]
IC50 [1]: 0.99 µM | IC50 [2]: 4.51 µM | IC50 (human cathepsin G (HCG)): > 50 µM

Cc1cccc2nc([C@@H](NC(=O)[C@@H]3C[C@@H](O)CN3C(=O)OCc3ccccc3)C(C)C)oc(=O)c12 [Example 12, (1'S)-2-[1'-(N-benzyloxycarbonyl-trans-4-hydroxy-L-prolyl)amino-2'-methyl]propyl-5-methyl-4H-3,1-benzoxazin-4-one]
IC50 [1]: 1.15 µM | IC50 [2]: 10.7 µM | IC50 (human cathepsin G (HCG)): > 200 µM
